How the values were obtained:
[1] = tested on: BT474 (breast cancer cell line); test: In vitro cytotoxicity by MTT assay, BT474; type: cell-based; details: Homo sapiens, 72 h, read-out: % cytotoxicity (100 − % cell survival) of BT474 cell line; for cytotoxicity at 0.005 µM: BT-474, 0.005 μM; for cytotoxicity at 0.015 µM: BT-474, 0.015 μM; for cytotoxicity at 0.045 µM: BT-474, 0.045 μM; for cytotoxicity at 0.13 µM: BT-474, 0.13 μM; for cytotoxicity at 0.41 µM: BT-474, 0.41 μM; for cytotoxicity at 1.23 µM: BT-474, 1.23 μM; for cytotoxicity at 3.7 µM: BT-474, 3.7 μM; for cytotoxicity at 11.11 µM: BT-474, 11.11 μM; for cytotoxicity at 33.33 µM: BT-474, 33.33 μM; for cytotoxicity at 100 µM: BT-474, 100 μM
Experimental: (§1) The cancer cell line cultures of HEK 293 ([…]), BT474 (breast cancer cell line) and NCI-H226 (lung cancer) were obtained from Pasteur Institute of India, Coonoor, India, and were cultured in RPMI-1640 and 10 % heat-[…] New born calf serum with antibiotics [penicillin ([…]), streptomycin (100 μg/mL) and amphotericin B (25 μg/mL)]. The cells were maintained at 37 °C in a humidified atmosphere with 5 % CO2 and were subcultured twice a week.
(§2) The monolayer cell culture (100 μL) was trypsinized, and the cell count was adjusted to […] using medium containing 10 % new born calf serum. To each well of the 96-well microtitre plate, the diluted cell suspension (approximately 10,000 cells) (0.1 mL) was added and kept for 24 h in incubator at 37 °C in 5 % CO2 atmosphere for cell monolayer formation. After 24 h, when a partial monolayer was formed at the bottom of the well, the supernatant was flicked off, the monolayer was washed once, and different drugs, i.e. synthesized compounds (100 μL), were added to the cells in microtitre plates. The plates were then incubated at 37 °C for 3 days in 5 % CO2 atmosphere, and microscopic examination was carried out and observations recorded every 24 h. After 72 h, the sample solution in the wells was flicked off; MTT dye ([…]) was added to each well; plates were gently shaken and incubated for 4 h at 37 °C in 5 % CO2 incubator. The supernatant was removed and propanol (50 μL) was added; the plates were gently shaken to solubilize the formed formazan. The absorbance was measured using a microplate reader at a wavelength of 490 nm (Edmondson et al., [1988]; Prasad et al., [2005]; Chiruvella et al., [2008]; Chang et al., [2007]).

[2] = In vitro cytotoxicity by MTT assay, NCI-H226; type: cell-based; details: human, NCI-H226 lung cancer cells, 0.015 μM, read-out: % Cytotoxicity (100 − % cell survival) of NCI-H226 cell line
Experimental: as §1, §2

[3] = tested on: NCI-H226 (lung cancer cell line); test: In vitro cytotoxicity by MTT assay, NCI-H226; type: cell-based; details: Homo sapiens, 72 h, read-out: % Cytotoxicity (100 − % cell survival) of NCI-H226 cell line; for cytotoxicity at 0.005 µM: NCI-H226, 0.005 μM; for cytotoxicity at 0.045 µM: NCI-H226, 0.045 μM; for cytotoxicity at 0.13 µM: NCI-H226, 0.13 μM; for cytotoxicity at 0.41 µM: NCI-H226, 0.41 μM; for cytotoxicity at 1.23 µM: NCI-H226, 1.23 μM; for cytotoxicity at 3.7 µM: NCI-H226, 3.7 μM; for cytotoxicity at 11.11 µM: NCI-H226, 11.11 μM; for cytotoxicity at 33.33 µM: NCI-H226, 33.33 μM; for cytotoxicity at 100 µM: NCI-H226, 100 μM
Experimental: as §1, §2

[4] = In vitro cytotoxicity by MTT assay, HEK 293; type: cell-based, human; details: human, HEK 293 cells, read-out: % cytotoxicity (100 − % cell survival) of HEK 293 cell line
Experimental: as §1, §2

[5] = tested on: root meristem cells of Allium cepa; test: In vitro antimitotic activity and cytogenetic analysis, Allium cepa meristem root model; type: cell-based; details: compounds 1 mg/mL, PC (EMS) 2 × 10^−2 M
Experimental: Small bulbs (1.5–2.0 cm in diameter) of the common onion, A. cepa (2n = 16), were purchased from vendor at a local market. Prior to initiating the test, the outer scales of the bulbs and the dry bottom plate were removed without destroying the root primordia. The roots of A. cepa were grown in distilled water in Erlenmeyer flasks (200 mL capacity) under laboratory conditions (dark 24 °C). For each synthesized compound sample, after reaching a length of 3 cm (±0.5 cm), a series of six bulbs were placed in distilled water (pH 7.3) for 48 h and then onion roots were treated with the synthesized compound at 1 mg/mL concentrations of each tested compound. The test tubes were kept in an incubator at 22 ± 1 °C, and the test samples were changed daily at the same time. Several of the newly formed root tips were then cut from each bulb and examined for any visible morphological abnormalities. The bulbs with satisfactory root lengths (2–2.5 cm) were used in the study, while those with exceptionally long or short roots were discarded (on average 2–3 bulbs). Therefore, individual sets of five bulbs were used for each extract sample.
Distilled water (pH 7.3) was used as a negative control, and EMS (2 × 10^−2 M) used as a positive control mutagen (Fiskesjo, [1993], [1997]). After 24 h of exposure, several root tips were removed from the bulbs, fixed in 3:1 (v/v) ethanol (90 %)/glacial acetic acid (45 %) and stored overnight at 4 °C. The next day, they were placed in 70 % (v/v) aqueous alcohol and refrigerated until used. Allium roots were softened by digesting with HCl and rinsed the roots in water. After removing the water from the third rinse, the roots were covered with the orcein acetate stain. The roots were incubated in the stain for 12 min. During this time, the very tip of the root begins to turn red as the DNA stains the numerous small actively dividing cells at the tip. A root was transferred to the centre of a clean microscope slide, and a drop of water was added. Using a razor blade most of the unstained part of the root was cut off and discarded. The root tip was covered with a cover slip and then carefully pushed down on the cover slide with the wooden end of a dissecting probe. […] The root tip should spread out to a diameter about 0.5–1 cm. Five slides were prepared per bulb.
The following parameters were used for the determination of cytotoxicity and genotoxicity: • (i) the mitotic index (MI) was calculated as the ratio between the number of mitotic cells and the total number of cells scored and expressed as percentage using following formula as per standard procedures. Mitoticindex=Numberofdividingcells/Totalnumberofcells×100 • (ii) Chromatin aberrations (stickiness, breaks and polar deviation) were used as end points for the determination of cytogenetic effects, and micronuclei (MNC) were scored in interphase cells per 1,000 cells (‰ MNC) (Freshney, [2000]). • (iii) The most frequent abnormalities are shown in microphotographs. After 72 h of exposure to the test samples, the root lengths were measured and used as an index of general toxicity. The results for mitotic index and root length are expressed as percentage of the negative and positive controls. Visible morphological modifications, such as changes in root consistency and colour as well as the presence of swelling (c-tumours), hooks or twists in the roots, were also observed.

Row | SMILES | cytotoxicity at 0.005 µM [1] | cytotoxicity at 0.015 µM [1] | cytotoxicity at 0.045 µM [1] | cytotoxicity at 0.13 µM [1] | cytotoxicity at 0.41 µM [1] | cytotoxicity at 1.23 µM [1] | cytotoxicity at 3.7 µM [1] | cytotoxicity at 11.11 µM [1] | cytotoxicity at 33.33 µM [1] | cytotoxicity at 100 µM [1] | cytotoxicity at 72 h, 0.015 µM [2] | cytotoxicity at 0.005 µM [3] | cytotoxicity at 0.045 µM [3] | cytotoxicity at 0.13 µM [3] | cytotoxicity at 0.41 µM [3] | cytotoxicity at 1.23 µM [3] | cytotoxicity at 3.7 µM [3] | cytotoxicity at 11.11 µM [3] | cytotoxicity at 33.33 µM [3] | cytotoxicity at 100 µM [3] | also measured
1 | Nc1nnc(S(=O)(=O)NC(=O)c2ccccc2N)s1 [Compound 4b] | 16.2% | 16.6% | 17.4% | 18% | 18.1% | 19.9% | 20.5% | 22.2% | 23.3% | 26.7% | 32.9% | 32.1% | 33.5% | 34% | 34.7% | 35.1% | 36% | 36.3% | 37.2% | 39.5% | cytotoxicity at 72 h, 0.005 µM [4]: 41.5%; cytotoxicity at 72 h, 0.015 µM [4]: 47%; cytotoxicity at 72 h, 0.045 µM [4]: 50.4%; cytotoxicity at 72 h, 0.13 µM [4]: 53.6%; cytotoxicity at 72 h, 0.41 µM [4]: 57.6%; cytotoxicity at 72 h, 1.23 µM [4]: 58.1%; cytotoxicity at 72 h, 3.7 µM [4]: 59.7%; cytotoxicity at 72 h, 11.11 µM [4]: 62.3%; cytotoxicity at 72 h, 33.33 µM [4]: 63.1%; cytotoxicity at 72 h, 100 µM [4]: 65.4%
2 | Nc1ccc(C(=O)NS(=O)(=O)c2nnc(N)s2)cc1 [Compound 4c] | 30.6% | 32.1% | 34.2% | 35.5% | 36.3% | 37.6% | 38.8% | 39.4% | 40.3% | 41.4% | 38.2% | 37.6% | 38.9% | 39.3% | 42.2% | 45.4% | 47.2% | 49.1% | 51.2% | 54.2% | cytotoxicity at 72 h, 0.005 µM [4]: 36.3%; cytotoxicity at 72 h, 0.015 µM [4]: 37.9%; cytotoxicity at 72 h, 0.045 µM [4]: 38.2%; cytotoxicity at 72 h, 0.13 µM [4]: 39.1%; cytotoxicity at 72 h, 0.41 µM [4]: 39.9%; cytotoxicity at 72 h, 1.23 µM [4]: 40.7%; cytotoxicity at 72 h, 3.7 µM [4]: 42.1%; cytotoxicity at 72 h, 11.11 µM [4]: 46.5%; cytotoxicity at 72 h, 33.33 µM [4]: 47.8%; cytotoxicity at 72 h, 100 µM [4]: 49.1%
3 | Nc1nnc(S(=O)(=O)NC(=O)c2ccccc2O)s1 [Compound 4d] | 23.2% | 24.2% | 25.3% | 26.2% | 26.8% | 27.1% | 28.1% | 29.4% | 30.3% | 32.1% | 35.1% | 34.2% | 35.2% | 36.3% | 37.3% | 38% | 38.3% | 39.7% | 42.1% | 42.6% | cytotoxicity at 72 h, 0.005 µM [4]: 37.3%; cytotoxicity at 72 h, 0.015 µM [4]: 38.3%; cytotoxicity at 72 h, 0.045 µM [4]: 39.4%; cytotoxicity at 72 h, 0.13 µM [4]: 40.5%; cytotoxicity at 72 h, 0.41 µM [4]: 42.1%; cytotoxicity at 72 h, 1.23 µM [4]: 42.4%; cytotoxicity at 72 h, 3.7 µM [4]: 44.6%; cytotoxicity at 72 h, 11.11 µM [4]: 47%; cytotoxicity at 72 h, 33.33 µM [4]: 47.6%; cytotoxicity at 72 h, 100 µM [4]: 48.1%
4 | CCOS(C)(=O)=O [PC, Ethyl methanesulphonate, reference compound] |  |  |  |  |  |  |  |  |  |  |  |  |  |  |  |  |  |  |  |  | Aberrant cells (%) ± SEM [5]: 43.20 ± 7.10%; MNC (‰) ± SEM (micronuclei per 1,000 cells) [5]: 0.59 ± 0.09 ‰; Polar deviations (%) ± SEM [5]: 12.36 ± 3.36%; Stickiness (%) ± SEM [5]: 36.31 ± 9.84%; MI (%) ± SEM (mitotic index) ([5]; lower MI = higher activity, negative control 6.22): 1.86 ± 0.23%

Source: article PMC3973950, “Synthesis of 5-arylidine amino-1,3,4-thiadiazol-2-[(N-substituted benzyol)]sulphonamides endowed with potent antioxidants and anticancer activity induces growth inhibition in HEK293, BT474 and NCI-H226 cells” (Medicinal Chemistry Research, 2013)
